Results as given in patent publication US20070167408A1, “NOVEL ALKYL PHOSPHOLIPID DERIVATIVES WITH REDUCED CYTOTOXICITY AND USES THEREOF” (ZENTARIS GmbH, priority 2005, published 2007).
Values after ≈ are worked out from the molar mass of the structure shown.

Columns and labels:
[1] = tested on: RKOp21 (human colon adenocarcinoma) cells; test: XTT cytotoxicity assay, RKOp21 cells; type: cell-based; conditions: 31.6 μM, second set of experiments
Procedure, shortened: (§1)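 Cells recovered 24 h after plating, then exposed to compounds for 48 h at 37 °C; one set used 10 semi-log concentrations from 100 μM, another 31.6 μM final for PC3 and RKOp21. XTT-PMS added for 3 h, formazan absorbance at 490 nm versus untreated cells; IC50 from inhibition curves.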

[2] = tested on: PC3 (human prostate carcinoma) cells; test: XTT cytotoxicity assay, PC3 cells; type: cell-based; conditions: 31.6 μM, second set of experiments
Procedure, shortened: as §1

[3] = tested on: PC3, RKOp21 and SKOV-3 cell lines; test: XTT cytotoxicity assay, mean over all three cell lines; type: cell-based, human; conditions: mean value over all three cell lines
Procedure, shortened: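 Cells had 2 days of continuous compound exposure, then 3 h with XTT-PMS at 37 °C, 5% CO2 to form formazan from living cells. The value is % inhibition of cell growth, averaged over PC3, RKOp21 and SKOV-3.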

[4] = tested on: Streptococcus pneumoniae DSM 11967 (ATCC 49619); test: Anti-bacterial bouillon microdilution assay (MIC), bacterium B; type: cell-based; conditions: Streptococcus pneumoniae DSM 11967, 24 h
Description: Selected compounds of the invention were tested in a bouillon microdilution assay method according to the DIN 58940 (www.din.de) guidelines for determination of susceptibility of bacterial strains with regard to cell growth inhibition. The assay method quantifies bacterial cell growth which corresponds to the turbidity of the liquid culture medium by photometric measurement carried out at 595 nm.
The method of MIC determination was performed according to DIN 58940-5. The volumina were adapted according to the microdilution method as described in DIN 58940-7 guideline.
Dependent on water solubility, compounds of the invention were dissolved either in water or ethanol in a concentration of 10 mg/ml. Subsequently, the stock was further diluted in water to a concentration of 512 μg/ml. The following serial dilutions (factor 2) were performed in water resulting in the following […] testing concentrations: 256 μg/ml, 128 μg/ml, 64 μg/ml, 32 μg/ml, 16 μg/ml, 8 μg/ml, 4 μg/ml, 2 μg/ml, 1 μg/ml, 0.5 μg/ml, 0.25 μg/ml and 0.125 μg/ml. Diluted compounds of the invention were transferred in 100 μl volume to the microtiter plate wells.
Pre-cultures of bacteria were grown in appropriate liquid media (refer to ATCC webpage, www.atcc.org) and afterwards were inoculated in corresponding liquid medium. 100 μl of the inoculums [adjusted to an amount of app. 1×10^6 microorganisms per ml (range of 10^5-10^8 microorganisms per ml)] were added to each of the testing compound concentrations and cultivated under the appropriate conditions.
Before and after incubation, bacterial growth was determined by photometric analysis against a positive control containing growing bacteria without compound and a sterile/negative control containing only the medium.

Compound	RKOp21 % INH [31.6 μM] [1]	PC3 % INH [31.6 μM] [2]	Mean % INH [3]	MIC, bacterium B [4]	inhibition at 31.6 µM ([1]; Homo sapiens, read-out: RKOp21 % INH [31.6 μM])	inhibition at 31.6 µM ([2]; Homo sapiens, PC-3, read-out: PC3 % INH [31.6 μM])	MIC [4]
CCCCCCCCCCCCCCCCOP(=O)([O-])OCC[N+]1(C)CCCCC1 [Compound 2, Phosphoric acid hexadecyl ester 2-(1-methyl-piperidin-1-yl)-ethyl ester]	38.8%	50.1%	36.1%	8 µg/mL (≈ 17.9 µM)			
CCCCCCCCCCCCCCCCOP(=O)([O-])OCC[N+](C)(C)C [miltefosine, hexadecylphosphocholine, reference compound]			68.7%		64%	67.4%	128 µg/mL (≈ 314 µM)
